Common to all, as to format: functional, organism-based
For test [1], the system named is Empoasca fabae. Nature of the test: Food deterrence activity against Empoasca fabae (potato leafhopper) assessed as deterring insect settling at 100 ug/cm2 through compound application to surface of sachet containing artificial diet measured at 15 min interval over next 350 min by two-choice bioassay.
Test [2] deals with Empoasca fabae. Nature of the test: Food deterrence activity against Empoasca fabae (potato leafhopper) assessed as deterring insect settling at 12.5 ug/cm2 through compound application to surface of sachet containing artificial diet measured at 15 min interval over next 350 min by two-choice bioassay.
For test [3], the system named is Empoasca fabae. Nature of the test: Food deterrence activity against Empoasca fabae (potato leafhopper) assessed as deterring insect settling at 25 ug/cm2 through compound application to surface of sachet containing artificial diet measured at 15 min interval over next 350 min by two-choice bioassay.
The subject of test [4] is Empoasca fabae. Nature of the test: Food deterrence activity against Empoasca fabae (potato leafhopper) assessed as deterring insect settling at 50 ug/cm2 through compound application to surface of sachet containing artificial diet measured at 15 min interval over next 350 min by two-choice bioassay.
Test [5] concerns Empoasca fabae. Nature of the test: Food deterrence activity against Empoasca fabae (potato leafhopper) assessed as deterring insect settling at 12.5 to 100 ug/cm2 through compound application to surface of sachet containing artificial diet measured at 15 min interval over next 350 min by two-choice bioassay.

Structures are written as SMILES. Activity calls are given as the source filed them. The rule behind the calls is not given here.

With `CCCCC/C=C\C/C=C\CCCCCCCC(=O)NCCC(C)C`, the result in the test with Empoasca fabae [1], with Empoasca fabae [3] and in the test with Empoasca fabae [4] was Active. In the test on Empoasca fabae [2], the outcome was inactive. Besides, the Activity entry in the test on Empoasca fabae [5] is “Dose-dependent effect”.

For the origin of these results see ChEMBL document CHEMBL3046937, “Mass spectral characterization of fatty acid amides from alfalfa trichomes and their deterrence against the potato leafhopper” (Phytochemistry, 2005).
